Here are results for two compounds from patent publication US4874891A, “Open "D" ring hormone analogs” (Washington University, priority 1986, dated 1989).

This assay deals with T1, 17β-HSD (Homo sapiens, UniProt P14061).
T1 sequence (P14061 1-328): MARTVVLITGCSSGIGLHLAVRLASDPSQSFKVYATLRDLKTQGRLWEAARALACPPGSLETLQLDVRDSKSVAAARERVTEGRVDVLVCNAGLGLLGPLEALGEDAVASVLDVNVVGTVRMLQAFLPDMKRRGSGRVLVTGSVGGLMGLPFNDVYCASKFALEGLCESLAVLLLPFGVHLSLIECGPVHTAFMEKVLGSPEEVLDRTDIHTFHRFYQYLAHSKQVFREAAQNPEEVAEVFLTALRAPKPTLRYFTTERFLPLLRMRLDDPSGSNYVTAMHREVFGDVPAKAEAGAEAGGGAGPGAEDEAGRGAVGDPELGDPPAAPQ
In words: Time-dependent inactivation of 17β-HSD (NADH production at 340 nm with estradiol and NAD+). Format: biochemical. The protocol:
The compounds of the invention prepared as described above were tested for their ability to affect the reaction catalyzed by 17β-HSD, as follows.
Approximately 5 μl of a 2-20 mM solution of the test compound in absolute alcohol was added to the incubation mixture, which contained:
200 μM NAD^+ (100 μl of 2 mM stock);
795 μl 100 mM sodium carbonate buffer (pH 9.2, containing 20% glycerol) or 795 μl phosphate buffer (pH 7.4, 20% glycerol);
90 μg of enzyme (supplied as 100 μl of 0.9 μg/μl stock).
Aliquots were removed at intervals and added to 950 μl of assay cocktail, which contained:
100 mM sodium carbonate buffer;
60 μM estradiol in propylene glycol stock;
0.8% human serum albumin.
The activity remaining in the incubation mixture was assessed by NADH production in the assay cocktail monitored by adsorption at 340 nm every 15 sec for 2 min with an automated spectrophotometer.
All aqueous stock solutions were prepared in 100 mM sodium carbonate buffer, 20% glycerol, to maintain enzyme stability. Where additional components were added, such as glutathione, volumes were adjusted accordingly. To assess loss of enzyme activity independent of the test compound, 5 μl ethanol was added in place of steroid stock solution to the assay cocktail.
When aliquots were withdrawn less than 3 min apart, the aliquot was quenched in 900 μl assay buffer without NAD^+ and supplemented with 5 mM glutathione: after all aliquots were withdrawn, samples were assayed by adding NAD^+ (50 μl of a 4 mM stock) and monitored as above.
Compounds of the invention were evaluated in terms of Km, Vmax, and Rp.

With `C#CC(O)C1(C)CCC2c3ccc(O)cc3CCC2C1` (stereo not drawn) [--CH(OH)C.ident.CH, [2S-[2α(S*),4aα,10aβ]]-α-Ethynyl-1,2,3,4,4a,9,10,10a-octahydro-7-hydroxy-2-methyl-2-phenanthrenemethanol], where the note is “5 mM glutathione”, the “effect of glutathione on inactivation of the enzyme” value is on record as 5 mM glutathione protects the enzyme from inactivation.
Consider `C#CC(=O)[C@@]1(C)CC[C@@H]2c3ccc(O)cc3CC[C@H]2C1` [--COC.ident.CH, [2S-(2α,4aα,10aβ)]-1-(1,2,3,4,4a,9,10,10a-Octahydro-7-hydroxy-2-methyl-2-phenanthrenyl)-2-propyn-1-one], for which the “substrate for the enzyme” value (presence of NAD+) was “not a substrate for the enzyme in the presence of NAD^+”. For the setting “presence of NADH”, the “effect of NADH on inactivation of the enzyme” value is on record as “inactivation of the enzyme is inhibited by the presence of NADH”.
